Values of other authors as cited in patent publication US20070135423A1, “E-fluoro-4-(pyridin-2-yl)-piperidine-1-carboxamide derivatives and related compounds which modulate the function of the vanilloid-1 receptor (vr1) for the treatment of pain” (priority 2003, published 2007).

Target: VR1 (Rattus norvegicus, UniProt O35433)
Settings: Wahl et al., Mol. Pharmacol, 59:9, 2001

Sequence of VR1 (O35433 whole entry): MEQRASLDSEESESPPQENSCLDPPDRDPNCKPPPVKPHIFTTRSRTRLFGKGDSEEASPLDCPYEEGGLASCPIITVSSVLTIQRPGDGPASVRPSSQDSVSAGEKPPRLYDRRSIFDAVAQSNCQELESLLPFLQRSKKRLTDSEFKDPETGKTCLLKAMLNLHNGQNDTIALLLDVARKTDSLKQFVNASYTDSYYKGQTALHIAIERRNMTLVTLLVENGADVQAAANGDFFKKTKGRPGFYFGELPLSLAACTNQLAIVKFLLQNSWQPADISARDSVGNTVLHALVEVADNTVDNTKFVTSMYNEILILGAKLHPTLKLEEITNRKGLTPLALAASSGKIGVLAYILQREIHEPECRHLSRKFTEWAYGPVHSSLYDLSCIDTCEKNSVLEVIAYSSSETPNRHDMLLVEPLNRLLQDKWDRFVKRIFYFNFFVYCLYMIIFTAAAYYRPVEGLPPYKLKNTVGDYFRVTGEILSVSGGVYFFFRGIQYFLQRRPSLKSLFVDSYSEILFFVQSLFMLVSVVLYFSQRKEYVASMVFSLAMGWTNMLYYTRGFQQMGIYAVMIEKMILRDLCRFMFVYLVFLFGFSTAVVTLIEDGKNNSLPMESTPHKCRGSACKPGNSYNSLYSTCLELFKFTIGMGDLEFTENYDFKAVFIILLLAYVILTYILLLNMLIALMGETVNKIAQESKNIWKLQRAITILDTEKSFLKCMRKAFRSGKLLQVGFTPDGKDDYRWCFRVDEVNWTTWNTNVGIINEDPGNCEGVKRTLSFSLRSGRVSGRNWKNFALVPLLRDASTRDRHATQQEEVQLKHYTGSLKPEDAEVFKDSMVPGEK

For C=C(C)[C@]12C[C@@H](C)[C@@]34O[C@](Cc5ccccc5)(O[C@@H]1[C@@H]3C=C(COC(=O)Cc1cc(I)c(O)c(OC)c1)C[C@]1(O)C(=O)C(C)=C[C@@H]41)O2 [Iodo-resiniferatoxin], the “VR1 antagonist potency (in words)” value is listed as “nanomolar antagonist”.
